Results on four molecules are retold here after patent US20050124637A1, “Compounds and compositions as inhibitors of receptor tyrosine kinase activity” (IRM LLC, priority 2003, published 2005).

The target in test [1] is T1, Bmx (Homo sapiens, UniProt P51813).
T1 construct: purchased Upstate
T1 sequence (P51813 1-675): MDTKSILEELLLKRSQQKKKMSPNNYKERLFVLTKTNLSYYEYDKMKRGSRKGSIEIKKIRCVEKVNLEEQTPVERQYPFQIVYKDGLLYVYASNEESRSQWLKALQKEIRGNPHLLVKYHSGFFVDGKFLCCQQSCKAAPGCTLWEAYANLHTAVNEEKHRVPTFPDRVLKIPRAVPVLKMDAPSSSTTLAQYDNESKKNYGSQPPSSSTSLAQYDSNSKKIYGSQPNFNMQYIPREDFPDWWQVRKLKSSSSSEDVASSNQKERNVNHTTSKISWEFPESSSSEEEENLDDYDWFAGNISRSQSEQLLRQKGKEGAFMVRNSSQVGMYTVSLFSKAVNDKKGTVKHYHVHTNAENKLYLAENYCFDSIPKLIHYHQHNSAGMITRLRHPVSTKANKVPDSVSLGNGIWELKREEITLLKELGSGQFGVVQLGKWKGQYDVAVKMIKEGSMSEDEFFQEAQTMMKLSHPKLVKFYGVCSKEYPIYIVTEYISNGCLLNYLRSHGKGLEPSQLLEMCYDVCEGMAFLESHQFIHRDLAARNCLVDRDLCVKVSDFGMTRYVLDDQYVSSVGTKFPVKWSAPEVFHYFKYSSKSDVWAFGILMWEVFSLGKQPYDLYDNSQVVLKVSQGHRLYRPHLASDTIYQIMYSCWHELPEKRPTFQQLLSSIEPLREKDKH
In words: Upstate KinaseProfiler radio-enzymatic filter binding assay, Bmx. It counts as biochemical. The following applies: 10 μM compound; read-out: percentage inhibition, Bmx. The protocol: (§1) Compounds of the invention are assessed for their ability to inhibit individual members of a panel of kinases (a partial, non-limiting list of kinases includes: cSRC, Lck, FGFR3, Flt3, TrkB and PFGFRα). The compounds are tested in duplicates at a final concentration of 10 μM following this generic protocol. Note that the kinase buffer composition and the substrates vary for the different kinases included in the “Upstate KinaseProfiler™” panel. Kinase buffer (2.5 μL, 10×-containing MnCl2 when required), active kinase (0.001-0.01 Units; 2.51 μL), specific or Poly(Glu4-Tyr) peptide (5-500 μM or 0.01 mg/ml) in kinase buffer and kinase buffer (50 μM; 5 μL) are mixed in an eppendorf on ice. A Mg/ATP mix (10 μL; 67.5 (or 33.75) mM MgCl2, 450 (or 225) μM ATP and 1 μCi/μl [γ-^32P]-ATP (3000 Ci/mmol)) is added and the reaction is incubated at about 30° C. for about 10 minutes. The reaction mixture is spotted (20 μL) onto a 2 cm×2 cm P81 (phosphocellulose, for positively charged peptide substrates) or Whatman No. 1 (for Poly (Glu4-Tyr) peptide substrate) paper square. The assay squares are washed 4 times, for 5 minutes each, with 0.75% phosphoric acid and washed once with acetone for 5 minutes. The assay squares are transferred to a scintillation vial, 5 ml scintillation cocktail are added and ^32P incorporation (cpm) to the peptide substrate is quantified with a Beckman scintillation counter. Percentage inhibition is calculated for each reaction.

The target of test [2] is T2, c-Src (Homo sapiens, UniProt P12931).
T2 construct: purchased Upstate
In words: Upstate KinaseProfiler radio-enzymatic filter binding assay, c-Src. It counts as biochemical. Conditions: 10 μM compound; read-out: percentage inhibition, c-Src. On the procedure:
as §1

In test [3] the target is T3, Lck (Homo sapiens, UniProt P06239).
T3 construct: purchased Upstate
The test is described as follows: Upstate KinaseProfiler radio-enzymatic filter binding assay, Lck. Conditions: 10 μM compound; read-out: percentage inhibition, Lck. In kind it is biochemical. On the procedure: as §1

Test [4] has as its target T4, Flt3 (Homo sapiens, UniProt P36888).
T4 construct: purchased Upstate
T4 sequence (P36888 27-993): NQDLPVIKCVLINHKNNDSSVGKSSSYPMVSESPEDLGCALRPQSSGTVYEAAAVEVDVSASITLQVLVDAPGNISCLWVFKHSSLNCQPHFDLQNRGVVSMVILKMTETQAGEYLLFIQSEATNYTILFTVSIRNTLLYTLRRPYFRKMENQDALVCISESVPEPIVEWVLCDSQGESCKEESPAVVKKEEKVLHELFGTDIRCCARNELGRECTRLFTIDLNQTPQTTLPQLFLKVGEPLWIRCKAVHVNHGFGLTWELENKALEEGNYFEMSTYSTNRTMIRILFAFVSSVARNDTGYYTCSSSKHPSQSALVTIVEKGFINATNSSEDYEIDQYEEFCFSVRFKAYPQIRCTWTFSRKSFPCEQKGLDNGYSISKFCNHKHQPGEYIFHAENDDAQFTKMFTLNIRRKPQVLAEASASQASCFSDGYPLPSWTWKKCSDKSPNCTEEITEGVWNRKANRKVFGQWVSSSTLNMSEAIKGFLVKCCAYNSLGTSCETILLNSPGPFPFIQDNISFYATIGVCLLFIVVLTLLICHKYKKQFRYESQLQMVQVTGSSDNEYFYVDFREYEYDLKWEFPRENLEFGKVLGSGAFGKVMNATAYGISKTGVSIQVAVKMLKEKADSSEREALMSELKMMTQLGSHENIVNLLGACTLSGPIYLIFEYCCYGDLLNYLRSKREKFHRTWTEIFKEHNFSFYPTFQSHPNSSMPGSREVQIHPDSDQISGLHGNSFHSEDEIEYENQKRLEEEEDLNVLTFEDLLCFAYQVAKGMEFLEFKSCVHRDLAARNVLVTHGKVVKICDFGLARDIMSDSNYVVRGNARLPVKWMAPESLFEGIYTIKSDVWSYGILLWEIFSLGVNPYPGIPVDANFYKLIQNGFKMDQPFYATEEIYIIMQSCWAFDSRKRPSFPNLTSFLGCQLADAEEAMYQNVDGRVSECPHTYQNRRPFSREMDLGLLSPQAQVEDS
In words: Upstate KinaseProfiler radio-enzymatic filter binding assay, Flt3. In kind it is biochemical. The following applies: 10 μM compound; read-out: percentage inhibition, Flt3. On the procedure: as §1

For test [5], the target named is T5, TrkB (Homo sapiens, UniProt Q16620).
T5 construct: purchased Upstate
In words: Upstate KinaseProfiler radio-enzymatic filter binding assay, TrkB. It counts as biochemical. The following applies: 10 μM compound; read-out: percentage inhibition, TrkB. On the procedure: as §1

Test [6] deals with T6, Abl (Homo sapiens, UniProt P00519).
T6 construct: purchased Upstate
The test is described as follows: Upstate KinaseProfiler radio-enzymatic filter binding assay, Abl. In kind it is biochemical. Conditions: 10 μM compound; read-out: percentage inhibition, Abl. The protocol: (§2) Compounds of the invention are assessed for their ability to inhibit individual members of a panel of kinases (a partial, non-limiting list of kinases includes: cSRC, Lck, FGFR3, Flt3, TrkB and PFGFRα). The compounds are tested in duplicates at a final concentration of 10 μM following this generic protocol. Note that the kinase buffer composition and the substrates vary for the different kinases included in the “Upstate KinaseProfiler™” panel. Kinase buffer (2.5 μL, 10×-containing MnCl2 when required), active kinase (0.001-0.01 Units; 2.51 μL), specific or Poly(Glu4-Tyr) peptide (5-500 μM or 0.01 mg/ml) in kinase buffer and kinase buffer (50 μM; 5 μL) are mixed in an eppendorf on ice. A Mg/ATP mix (10 μL; 67.5 (or 33.75) mM MgCl2, 450 (or 225) μM ATP and 1 μCi/μl [γ-^32P]-ATP (3000 Ci/mmol)) is added and the reaction is incubated at about 30° C. for about 10 minutes. […] The assay squares are transferred to a scintillation vial, 5 ml scintillation cocktail are added and ^32P incorporation (cpm) to the peptide substrate is quantified with a Beckman scintillation counter. Percentage inhibition is calculated for each reaction.

Test [7] deals with T7, Rsk1 (Homo sapiens, UniProt Q15418).
T7 construct: purchased Upstate
In words: Upstate KinaseProfiler radio-enzymatic filter binding assay, Rsk1. In kind it is biochemical. Conditions: 10 μM compound; read-out: percentage inhibition, Rsk1. On the procedure:
as §2

The target of test [8] is T8, FGFR3 (Homo sapiens, UniProt P22607).
T8 construct: purchased Upstate
In words: Upstate KinaseProfiler radio-enzymatic filter binding assay, FGFR3. In kind it is biochemical. Conditions: 10 μM compound; read-out: percentage inhibition, FGFR3. On the procedure:
as §2

Test [9] has as its target T9, purified GST-Flt-3 (Homo sapiens, UniProt P36888).
T9 sequence (P36888 27-993): T4 sequence (P36888 27-993)
In words: Flt-3 tyrosine protein kinase assay, 33P incorporation from γ-33P-ATP into poly-EY. It counts as biochemical. The following applies: purified GST-Flt-3, 10 μM ATP; read-out: IC50 in the assay described in example 13. The protocol: The activity is assayed in the presence or absence of different concentrations of inhibitors, by measuring the incorporation of ^33P from γ-^33P-ATP into appropriate substrates.
Tyrosine protein kinase assay with purified GST-Flt-3 is carried out in a final volume of 40 μL containing 500 ng of enzyme in kinase buffer (30 mM Tris-HCl (pH7.5), 3 mM MnCl2, 15 mM MgCl2, 1.5 mM DTT, 15 μM Na3VO4, 7.5 mg/ml PEG, 0.25 μM poly-EY(Glu, Tyr), 1% DMSO (at highest concentration of compound), 10 μM ATP and γ-^33P-ATP (0.1 μCi)). Two solutions are made: the first solution of 10 μl contains the Flt-3 enzyme and the inhibitor. The second solution contains the substrate (poly-EY), ATP, and γ-^33P-ATP in 30 μl of kinase buffer. Both solutions are mixed on 96-well PVDF filter plates (Millipore, Bedford, Mass., USA), previously wetted with 70% ethanol and rinsed with 1M Tris (7.4). The reaction is incubated at room temperature for 20 minutes, stopped with 0.1% phosphoric acid and then filtered through the plate using a vacuum manifold, allowing the substrate to bind to the membrane. The plates are then washed 5 times with 0.1% phosphoric acid, mounted in Packard TopCount 96-well adapter plate, and 50 μL of Microscint™ (Packard) is added to each well before counting. […]

For test [10], the system named is Ba/F3-Flt3-ITD cells. In words: Ba/F3-Flt3-ITD cell proliferation/cytotoxicity (Yo-Pro). In kind it is cell-based. The following applies: Ba/F3 cells dependent on mutant Flt3, 48 hours, read-out: IC50 in the assay described by example 14. From the text: Compounds that have differential activity (more than or equal to 10 fold difference in sensitivity between Flt3+ cell lines and Flt3− cell lines are selected for further study.
The cell lines used for the initial screening are sub-lines of Ba/F3 cells that are engineered to over-express mutant or wild-type (non-mutated) Flt3 following infection with a retrovirus expressing appropriate Flt3 cDNAs. The parent cell line, Ba/F3 is dependent on interleukin-3 for proliferation, and when deprived of IL-3, the cells rapidly cease proliferation and die. The retrovirus expresses Flt3 from the retrovirual LTR and the neo gene from an IRES site. Ba/F3 cells are selected in G418 and analyzed for expression of Flt3 by fluorescence activated cell sorting (FACS). Cell lines with two different Flt3 mutations are used. One mutant expresses a Flt-3 that has a 14 amino acid duplication in the juxtamembrane domain encoded by exon 11, the specific duplication being . . . VDFREYEYDLKWEF . . . […]
Yo-Pro-1 iodide (Molecular Probes) is added to the cells at a final concentration of 2.5 μM in NaCl/Na-citrate buffer. The cells are incubated with Yo-Pro for 10 minutes at room temperature and then read on a fluorimeter for determination of cytotoxicity. Next, the cells are lysed with NP40/EDTA/EGTA buffer, incubated at room temperature for 90 minutes and read for the determination of proliferation. […]

pIC50: −log10 of the molar value.

T5 sequence (Q16620 32-822): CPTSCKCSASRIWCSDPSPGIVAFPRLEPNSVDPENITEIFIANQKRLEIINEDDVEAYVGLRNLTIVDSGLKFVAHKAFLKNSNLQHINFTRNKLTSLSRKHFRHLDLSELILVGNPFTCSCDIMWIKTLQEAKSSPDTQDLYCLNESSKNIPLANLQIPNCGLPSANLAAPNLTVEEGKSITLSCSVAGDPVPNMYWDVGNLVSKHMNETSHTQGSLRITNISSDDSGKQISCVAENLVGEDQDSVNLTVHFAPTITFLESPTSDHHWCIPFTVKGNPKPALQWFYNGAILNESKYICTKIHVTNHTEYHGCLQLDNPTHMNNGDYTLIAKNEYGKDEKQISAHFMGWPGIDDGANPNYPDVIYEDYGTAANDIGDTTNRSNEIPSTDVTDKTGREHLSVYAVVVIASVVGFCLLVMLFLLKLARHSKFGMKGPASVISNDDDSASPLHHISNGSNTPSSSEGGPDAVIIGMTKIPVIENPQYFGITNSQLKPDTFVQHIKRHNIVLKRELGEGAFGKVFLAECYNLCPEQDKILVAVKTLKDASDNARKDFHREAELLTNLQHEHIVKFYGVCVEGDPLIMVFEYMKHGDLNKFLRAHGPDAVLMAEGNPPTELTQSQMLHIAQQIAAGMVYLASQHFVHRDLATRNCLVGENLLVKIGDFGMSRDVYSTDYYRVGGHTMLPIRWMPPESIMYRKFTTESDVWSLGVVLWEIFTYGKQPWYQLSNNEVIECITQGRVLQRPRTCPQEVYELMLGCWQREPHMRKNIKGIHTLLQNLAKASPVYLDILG
T2 sequence (P12931 whole entry): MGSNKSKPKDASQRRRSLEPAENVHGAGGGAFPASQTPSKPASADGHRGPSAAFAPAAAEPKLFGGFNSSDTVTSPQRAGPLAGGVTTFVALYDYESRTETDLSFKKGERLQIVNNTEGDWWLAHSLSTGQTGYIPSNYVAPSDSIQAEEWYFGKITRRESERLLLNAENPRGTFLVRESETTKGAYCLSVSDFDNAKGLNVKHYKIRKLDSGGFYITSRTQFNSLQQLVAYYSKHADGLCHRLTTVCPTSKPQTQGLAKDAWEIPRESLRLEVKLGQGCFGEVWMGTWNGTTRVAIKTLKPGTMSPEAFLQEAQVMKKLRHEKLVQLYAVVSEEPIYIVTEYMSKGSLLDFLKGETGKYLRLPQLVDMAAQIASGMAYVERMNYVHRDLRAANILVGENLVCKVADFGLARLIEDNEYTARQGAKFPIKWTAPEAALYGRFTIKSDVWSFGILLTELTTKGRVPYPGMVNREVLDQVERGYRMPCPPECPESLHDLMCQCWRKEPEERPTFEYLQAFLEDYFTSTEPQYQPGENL
T3 sequence (P06239 whole entry): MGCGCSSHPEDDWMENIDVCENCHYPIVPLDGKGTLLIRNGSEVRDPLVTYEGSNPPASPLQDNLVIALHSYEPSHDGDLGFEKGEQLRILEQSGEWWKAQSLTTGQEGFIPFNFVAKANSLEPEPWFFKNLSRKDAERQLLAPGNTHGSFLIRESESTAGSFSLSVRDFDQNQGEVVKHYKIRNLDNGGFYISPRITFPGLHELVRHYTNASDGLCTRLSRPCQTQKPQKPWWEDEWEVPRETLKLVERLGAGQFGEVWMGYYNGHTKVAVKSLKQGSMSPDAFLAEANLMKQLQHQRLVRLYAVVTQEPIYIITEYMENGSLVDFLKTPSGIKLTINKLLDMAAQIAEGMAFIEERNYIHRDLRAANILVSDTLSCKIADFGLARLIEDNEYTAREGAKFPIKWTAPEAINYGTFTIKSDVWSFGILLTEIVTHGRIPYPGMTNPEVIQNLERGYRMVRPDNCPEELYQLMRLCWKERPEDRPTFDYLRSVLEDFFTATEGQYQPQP
T6 sequence (P00519 whole entry, species assumed): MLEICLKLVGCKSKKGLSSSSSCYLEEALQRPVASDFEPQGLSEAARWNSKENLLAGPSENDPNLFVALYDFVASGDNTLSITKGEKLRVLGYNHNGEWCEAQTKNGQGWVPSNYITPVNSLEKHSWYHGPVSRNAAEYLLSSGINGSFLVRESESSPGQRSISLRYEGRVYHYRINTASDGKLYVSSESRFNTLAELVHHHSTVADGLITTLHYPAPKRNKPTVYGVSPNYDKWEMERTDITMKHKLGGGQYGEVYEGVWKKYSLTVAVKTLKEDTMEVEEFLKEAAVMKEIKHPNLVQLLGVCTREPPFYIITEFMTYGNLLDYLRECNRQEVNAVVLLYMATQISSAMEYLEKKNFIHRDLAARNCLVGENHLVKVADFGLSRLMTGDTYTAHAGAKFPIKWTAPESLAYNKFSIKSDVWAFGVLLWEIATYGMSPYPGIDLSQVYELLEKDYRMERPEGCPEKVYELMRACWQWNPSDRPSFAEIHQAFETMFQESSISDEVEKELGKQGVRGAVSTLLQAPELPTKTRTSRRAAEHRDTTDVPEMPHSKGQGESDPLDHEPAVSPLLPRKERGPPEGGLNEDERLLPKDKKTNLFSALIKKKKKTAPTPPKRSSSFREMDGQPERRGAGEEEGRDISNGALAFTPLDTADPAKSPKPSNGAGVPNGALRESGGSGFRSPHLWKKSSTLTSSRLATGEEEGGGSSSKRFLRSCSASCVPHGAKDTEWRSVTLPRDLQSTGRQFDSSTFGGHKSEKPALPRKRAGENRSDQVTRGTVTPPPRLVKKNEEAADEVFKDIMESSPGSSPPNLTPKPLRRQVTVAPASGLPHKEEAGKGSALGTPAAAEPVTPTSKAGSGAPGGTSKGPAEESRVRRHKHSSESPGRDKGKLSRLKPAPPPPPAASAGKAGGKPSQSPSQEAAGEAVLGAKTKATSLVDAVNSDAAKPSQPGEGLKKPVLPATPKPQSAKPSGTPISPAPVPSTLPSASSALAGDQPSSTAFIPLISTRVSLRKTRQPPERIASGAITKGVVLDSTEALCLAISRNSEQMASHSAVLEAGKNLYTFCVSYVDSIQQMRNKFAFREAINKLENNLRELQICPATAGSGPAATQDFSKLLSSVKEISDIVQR
T8 sequence (P22607 23-806): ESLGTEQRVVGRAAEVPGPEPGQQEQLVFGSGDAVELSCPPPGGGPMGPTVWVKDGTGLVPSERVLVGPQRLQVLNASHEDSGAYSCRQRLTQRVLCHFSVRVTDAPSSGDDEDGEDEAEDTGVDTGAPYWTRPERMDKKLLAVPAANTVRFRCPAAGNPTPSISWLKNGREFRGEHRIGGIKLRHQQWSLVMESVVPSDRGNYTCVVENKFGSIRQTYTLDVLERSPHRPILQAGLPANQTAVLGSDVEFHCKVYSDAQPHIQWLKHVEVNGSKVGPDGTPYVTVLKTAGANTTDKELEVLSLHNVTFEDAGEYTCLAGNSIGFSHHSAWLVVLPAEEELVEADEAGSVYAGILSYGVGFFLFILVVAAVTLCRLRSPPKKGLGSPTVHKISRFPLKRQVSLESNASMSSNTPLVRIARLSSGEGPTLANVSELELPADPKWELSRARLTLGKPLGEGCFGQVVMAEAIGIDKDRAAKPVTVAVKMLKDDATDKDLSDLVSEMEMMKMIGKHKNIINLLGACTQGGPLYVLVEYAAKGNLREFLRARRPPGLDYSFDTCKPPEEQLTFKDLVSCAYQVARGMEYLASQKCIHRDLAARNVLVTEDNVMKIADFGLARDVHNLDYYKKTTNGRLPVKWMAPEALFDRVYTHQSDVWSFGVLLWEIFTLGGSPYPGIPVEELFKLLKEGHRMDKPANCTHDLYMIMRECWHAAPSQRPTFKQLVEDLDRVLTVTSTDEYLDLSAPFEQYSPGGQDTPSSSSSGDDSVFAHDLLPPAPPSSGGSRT
T7 sequence (Q15418 whole entry, species assumed): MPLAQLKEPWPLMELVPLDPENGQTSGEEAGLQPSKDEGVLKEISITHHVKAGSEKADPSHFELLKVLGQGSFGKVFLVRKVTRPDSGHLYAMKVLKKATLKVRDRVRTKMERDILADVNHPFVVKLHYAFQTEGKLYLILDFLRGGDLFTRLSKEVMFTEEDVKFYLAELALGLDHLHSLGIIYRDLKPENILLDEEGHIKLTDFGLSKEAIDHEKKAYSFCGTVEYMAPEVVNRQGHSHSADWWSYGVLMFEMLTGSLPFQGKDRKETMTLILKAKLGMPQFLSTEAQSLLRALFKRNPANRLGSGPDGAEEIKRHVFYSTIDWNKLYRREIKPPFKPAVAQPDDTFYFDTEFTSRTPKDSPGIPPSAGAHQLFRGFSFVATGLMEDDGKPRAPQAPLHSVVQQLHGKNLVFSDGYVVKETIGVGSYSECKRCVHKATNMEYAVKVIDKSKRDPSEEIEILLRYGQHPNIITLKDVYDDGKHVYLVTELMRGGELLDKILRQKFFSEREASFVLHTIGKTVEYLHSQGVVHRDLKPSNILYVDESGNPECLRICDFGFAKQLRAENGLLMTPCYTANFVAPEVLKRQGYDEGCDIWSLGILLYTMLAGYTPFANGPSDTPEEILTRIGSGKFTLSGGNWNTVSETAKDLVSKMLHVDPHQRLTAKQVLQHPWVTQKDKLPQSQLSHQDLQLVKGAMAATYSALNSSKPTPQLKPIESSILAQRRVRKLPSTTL

For the molecule `CS(=O)(=O)c1ccc(Nc2nc(N3CCOCC3)nc3c2ncn3-c2cscn2)cc1` [Compound 503, (4-Methanesulfonyl-phenyl)-(2-morpholin-4-yl-9-thiazol-4-yl-9H-purin-6-yl)-amine], the inhibition at 10 µM in [1] is 71%; in test [2], 98%; in [3], 99%; in test [4], 99%; in test [5], 99%; in test [6], 81%.

With `CN1CCC(N(C)c2nc(Nc3ccc(N4CCOCC4)cc3)c3ncn(-c4cscn4)c3n2)CC1` [Compound 539, N^2-Methyl-N^2-(1-methyl-piperidin-4-yl)-N^6-(4-morpholin-4-yl-phenyl)-9-thiazol-4-yl-9H-purine-2,6-diamine], the inhibition at 10 µM in test [1] was found to be 90%; in test [2], 97%; in test [3], 99%; in test [4], 100%; in test [7] it was 82%; in test [5] it was 99%.

Take `CS(=O)(=O)c1ccc(Nc2nc(NCc3ccccn3)nc3c2ncn3-c2cscn2)cc1` [Compound 554, N^6-(4-Methanesulfonyl-phenyl)-N^2-pyridin-2-ylmethyl-9-thiazol-4-yl-9H-purine-2,6-diamine]: the inhibition at 10 µM came to 86% in test [1]; 99% in test [2]; 95% in [3]; 100% in test [4]; 99% in test [5]; 98% in [6]. Further, the inhibition at 10 µM in [8] was 98%.

Turning to `NC1CCC(Nc2nc(Nc3ccc(C(=O)N4CCCCC4)cc3)c3ncn(-c4ccsc4)c3n2)CC1` (stereo not drawn) [{4-[2-(4-amino-cyclohexylamino)-9-thiophen-3-yl-9H-purin-6-ylamino]-phenyl}-piperidin-1-yl-methanone], the figures for the pIC50 in [9] and in test [10] were 8.15 and 8.30, respectively.
